Test results from patent US10766869B2, “Triazoles for the treatment of demyelinating dieases” (Vertex Pharmaceuticals Incorporated, priority 2015, dated 2020).

Tested on: primary rat mixed cortical cells
Test: In vitro myelination assay (MBP positive myelin strands, fold myelin pixels above background)
Assay type: cell-based
Details: Rattus norvegicus, relative to baseline of no added compound, read-out: Fold myelin pixels above background; for fold induction at 1 µM: 1.0 μM compound; for fold induction at 10 µM: 10.0 μM compound
How it was run: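 P1 rat cortical cells (neurons, OPCs, oligodendrocytes, astrocytes, microglia) were cultured 14 days at 37 °C with compound, with half-medium changes containing 1× compound on days 6 and 10. Fixed cells were immunostained for MBP and imaged at 10×. Total MBP myelin pixels per well were expressed as fold above no-compound baseline at 1.0 μM and 10.0 μM.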

| Compound | fold induction at 1 µM | fold induction at 10 µM |
| --- | --- | --- |
| Cc1cc(Nc2ncn(-c3cc(F)cc(F)c3)n2)cc(O[C@H]2C[C@H](N3CCOCC3)C2)c1 [Compound 752, 1-(3,5-difluorophenyl)-N-[3-methyl-5-(3-morpholinocyclobutoxy)phenyl]-1,2,4-triazol-3-amine] | 10 to 100 | 1 to 10 |
| Clc1cc(Nc2ncn(-c3cnccn3)n2)cc(N2CC(N3CCOCC3)C2)c1 [Compound 753, N-[3-chloro-5-(3-morpholinoazetidin-1-yl)phenyl]-1-pyrazin-2-yl-1,2,4-triazol-3-amine] | 10 to 100 | 100 to 1000 |
| COc1cc(Nc2ncn(-c3cc(F)cc(C(F)(F)F)c3)n2)cc(N2CCN(C3COC3)CC2)c1 [Compound 754, 1-[3-fluoro-5-(trifluoromethyl)phenyl]-N-[3-methoxy-5-[4-(oxetan-3-yl)piperazin-1-yl]phenyl]-1,2,4-triazol-3-amine] | 10 to 100 | 1 to 10 |
| Cc1cc(Nc2ncn(-c3cc(F)cc(F)c3)n2)nc(N2CCCC(O)C2)c1 (centres unmarked) [Compound 755, 1-[6-[[1-(3,5-difluorophenyl)-1,2,4-triazol-3-yl]amino]-4-methyl-2-pyridyl]piperidin-3-ol] | 1 to 10 | 10 to 100 |
| FC(F)c1cccc(-n2cnc(Nc3cc(C(F)F)cc(N4CC(N5CCOCC5)C4)n3)n2)c1 [Compound 756, 4-(difluoromethyl)-N-[1-[3-(difluoromethyl)phenyl]-1,2,4-triazol-3-yl]-6-(3-morpholinoazetidin-1-yl)pyridin-2-amine] | 1 to 10 | 10 to 100 |
| Cc1cc(Nc2ncn(-c3cc(F)cc(C(F)(F)F)c3)n2)cc(N2CCN(C3COC3)CC2)c1 [Compound 757, 1-[3-fluoro-5-(trifluoromethyl)phenyl]-N-[3-methyl-5-[4-(oxetan-3-yl)piperazin-1-yl]phenyl]-1,2,4-triazol-3-amine] | 10 to 100 | 10 to 100 |
| COc1cc(Nc2ncn(-c3ccc(Cl)c(F)c3)n2)nc(N2CCN(C3COC3)CC2)c1 [Compound 758, N-[1-(4-chloro-3-fluoro-phenyl)-1,2,4-triazol-3-yl]-4-methoxy-6-[4-(oxetan-3-yl)piperazin-1-yl]pyridin-2-amine] | 10 to 100 | 10 to 100 |
| Cc1cc(Nc2ncn(-c3cccc(C#N)c3)n2)cc(N2CCN(C3COC3)CC2)c1 [Compound 759, 3-[3-[3-methyl-5-[4-(oxetan-3-yl)piperazin-1-yl]anilino]-1,2,4-triazol-1-yl]benzonitrile] | 1 to 10 | 1 to 10 |
| Fc1cc(F)cc(-n2cnc(Nc3cc(N4CCN(C5COC5)CC4)nc(C(F)(F)F)c3)n2)c1 [Compound 760, N-[1-(3,5-difluorophenyl)-1,2,4-triazol-3-yl]-2-[4-(oxetan-3-yl)piperazin-1-yl]-6-(trifluoromethyl)pyridin-4-amine] | 1 to 10 | ≤ 1 |
| CCc1cc(Nc2ncn(-c3ccc(C)c(F)c3)n2)cc(N2CCN(C3COC3)CC2)c1 [Compound 761, N-[3-ethyl-5-[4-(oxetan-3-yl)piperazin-1-yl]phenyl]-1-(3-fluoro-4-methyl-phenyl)-1,2,4-triazol-3-amine] | 1 to 10 | ≤ 1 |
| CCc1cc(Nc2ncn(-c3ccc(C#N)cc3)n2)cc(N2CCN(C3COC3)CC2)c1 [Compound 762, 4-[3-[3-ethyl-5-[4-(oxetan-3-yl)piperazin-1-yl]anilino]-1,2,4-triazol-1-yl]benzonitrile] | ≤ 1 | ≤ 1 |
| N#Cc1cc(Nc2ncn(-c3cccnc3)n2)cc(N2CCOCC2)c1 [Compound 763, 3-morpholino-5-[[1-(3-pyridyl)-1,2,4-triazol-3-yl]amino]benzonitrile] | 10 to 100 | 10 to 100 |
| COC1CCCN(c2cc(C)cc(Nc3ncn(-c4cc(F)cc(F)c4)n3)n2)C1 (centres unmarked) [Compound 764, N-[1-(3,5-difluorophenyl)-1,2,4-triazol-3-yl]-6-(3-methoxy-1-piperidyl)-4-methyl-pyridin-2-amine] | 1 to 10 | 1 to 10 |
| Cc1cc(Nc2ncn(-c3cc(F)cc(F)c3)n2)c(F)c(NC2CCOC2)c1 (centres unmarked) [Compound 765, N3-[1-(3,5-difluorophenyl)-1,2,4-triazol-3-yl]-2-fluoro-5-methyl-N1-tetrahydrofuran-3-yl-benzene-1,3-diamine] | 10 to 100 | 1 to 10 |
| COCCNc1cc(F)cc(-n2cnc(Nc3cc(C)cc(N4CC(F)C4)c3)n2)c1 [Compound 766, N-[3-(3-fluoroazetidin-1-yl)-5-methyl-phenyl]-1-[3-fluoro-5-(2-methoxyethylamino)phenyl]-1,2,4-triazol-3-amine] | 1 to 10 | ≤ 1 |
| Cc1cc(Nc2ncn(-c3ccc(C)c(Cl)c3)n2)cc(N2CCN(C3COC3)CC2)c1 [Compound 767, 1-(3-chloro-4-methyl-phenyl)-N-[3-methyl-5-[4-(oxetan-3-yl)piperazin-1-yl]phenyl]-1,2,4-triazol-3-amine] | 1 to 10 | 10 to 100 |

| Compound | fold induction at 1 µM | fold induction at 10 µM |
| --- | --- | --- |
| Cc1cc(Nc2ncn(-c3cccc(C(F)F)c3)n2)nc(N2CC(N3CCOCC3)C2)c1 [Compound 768, N-[1-[3-(difluoromethyl)phenyl]-1,2,4-triazol-3-yl]-4-methyl-6-(3-morpholinoazetidin-1-yl)pyridin-2-amine] | ≤ 1 | 1 to 10 |
| Cc1cc(C#CC2CC2)cc(Nc2ncn(-c3cccc(F)c3)n2)c1 [Compound 769, N-[3-(2-cyclopropylethynyl)-5-methyl-phenyl]-1-(3-fluorophenyl)-1,2,4-triazol-3-amine] | 1 to 10 | ≤ 1 |
| Fc1ccc(-n2cnc(Nc3cc(C(F)(F)F)cc(N4CCOCC4)n3)n2)cc1F [Compound 770, N-[1-(3,4-difluorophenyl)-1,2,4-triazol-3-yl]-6-morpholino-4-(trifluoromethyl)pyridin-2-amine] | 10 to 100 | 10 to 100 |
| Cc1cc(Nc2ncn(-c3cc(F)cc(F)c3)n2)cc(N2CCN(C)C(C)(C)C2)c1 [Compound 771, 1-(3,5-difluorophenyl)-N-[3-methyl-5-(3,3,4-trimethylpiperazin-1-yl)phenyl]-1,2,4-triazol-3-amine] | 10 to 100 | ≤ 1 |
| Cc1cc(Nc2ncn(-c3cc(F)cc(F)c3)n2)cc(N2CCC(N3CCN(C)CC3)CC2)c1 [Compound 772, 1-(3,5-difluorophenyl)-N-[3-methyl-5-[4-(4-methylpiperazin-1-yl)-1-piperidyl]phenyl]-1,2,4-triazol-3-amine] | 1 to 10 | ≤ 1 |
| Cc1cc(Nc2ncn(-c3cc(F)cc(F)c3)n2)cc(N2CC(C(=O)N3CCCC3)C2)c1 [Compound 773, [1-[3-[[1-(3,5-difluorophenyl)-1,2,4-triazol-3-yl]amino]-5-methyl-phenyl]azetidin-3-yl]-pyrrolidin-1-yl-methanone] | 10 to 100 | ≤ 1 |
| Cc1cc(Nc2ncn(-c3cc(F)cc(F)c3)n2)nc(C2=CCOCC2)c1 [Compound 774, N-[1-(3,5-difluorophenyl)-1,2,4-triazol-3-yl]-6-(3,6-dihydro-2H-pyran-4-yl)-4-methyl-pyridin-2-amine] | 1 to 10 | 10 to 100 |
| OC1(c2cc(F)cc(Nc3ncn(-c4cc(F)cc(F)c4)n3)c2)COC1 [Compound 775, 3-[3-[[1-(3,5-difluorophenyl)-1,2,4-triazol-3-yl]amino]-5-fluoro-phenyl]oxetan-3-ol] | 1 to 10 | 10 to 100 |
| Cc1cc(Nc2ncn(-c3ccnc(F)c3)n2)cc(N2CCCN(C3COC3)CC2)c1 [Compound 776, 1-(2-fluoro-4-pyridyl)-N-[3-methyl-5-[4-(oxetan-3-yl)-1,4-diazepan-1-yl]phenyl]-1,2,4-triazol-3-amine] | 10 to 100 | ≤ 1 |
| Fc1cc(F)cc(-n2cnc(Nc3cc(C(F)F)cc(N4CCCC5(COC5)C4)n3)n2)c1 [Compound 777, 4-(difluoromethyl)-N-[1-(3,5-difluorophenyl)-1,2,4-triazol-3-yl]-6-(2-oxa-8-azaspiro[3.5]nonan-8-yl)pyridin-2-amine] | 1 to 10 | 10 to 100 |
| Cc1cc(Nc2ncn(-c3ccc(F)c(F)c3)n2)cc(OC2CCOC2)c1 (centres unmarked) [Compound 778, 1-(3,4-difluorophenyl)-N-(3-methyl-5-tetrahydrofuran-3-yloxy-phenyl)-1,2,4-triazol-3-amine] | 10 to 100 | 1 to 10 |
| Cc1ccc(-n2cnc(Nc3cc(F)cc(N4CCN(C5COC5)CC4)c3)n2)cc1F [Compound 779, 1-(3-fluoro-4-methyl-phenyl)-N-[3-fluoro-5-[4-(oxetan-3-yl)piperazin-1-yl]phenyl]-1,2,4-triazol-3-amine] | 1 to 10 | 1 to 10 |
| Cc1cc(Nc2ncn(-c3ccc(F)c(C)c3)n2)cc(N2CCN(C3COC3)CC2)c1 [Compound 780, 1-(4-fluoro-3-methyl-phenyl)-N-[3-methyl-5-[4-(oxetan-3-yl)piperazin-1-yl]phenyl]-1,2,4-triazol-3-amine] | 1 to 10 | 1 to 10 |
| COc1ccc(-n2cnc(Nc3cc(F)cc(N4CCN(C5COC5)CC4)c3)n2)cc1F [Compound 781, 1-(3-fluoro-4-methoxy-phenyl)-N-[3-fluoro-5-[4-(oxetan-3-yl)piperazin-1-yl]phenyl]-1,2,4-triazol-3-amine] | 1 to 10 | ≤ 1 |
| COc1c(F)cc(-n2cnc(Nc3cc(C)cc(N4CC(N5CCOCC5)C4)c3)n2)cc1F [Compound 782, 1-(3,5-difluoro-4-methoxy-phenyl)-N-[3-methyl-5-(3-morpholinoazetidin-1-yl)phenyl]-1,2,4-triazol-3-amine] | 10 to 100 | 1 to 10 |
